Results reported in US11549947B2, “Multiplexed detection with isotope-coded reporters” (Massachusetts Institute of Technology, priority 2011, dated 2023).

B1: serum CEA: blood biomarker carcinoembryonic antigen secreted by LS174T cells (protein, UniProt P06731 35-685, looked up)
Cell adhesion molecule CEACAM5: KLTIESTPFNVAEGKEVLLLVHNLPQHLFGYSWYKGERVDGNRQIIGYVIGTQQATPGPAYSGREIIYPNASLLIQNIIQNDTGFYTLHVIKSDLVNEEATGQFRVYPELPKPSISSNNSKPVEDKDAVAFTCEPETQDATYLWWVNNQSLPVSPRLQLSNGNRTLTLFNVTRNDTASYKCETQNPVSARRSDSVILNVLYGPDAPTISPLNTSYRSGENLNLSCHAASNPPAQYSWFVNGTFQQSTQELFIPNITVNNSGSYTCQAHNSDTGLNRTTVTTITVYAEPPKPFITSNNSNPVEDEDAVALTCEPEIQNTTYLWWVNNQSLPVSPRLQLSNDNRTLTLLSVTRNDVGPYECGIQNELSVDHSDPVILNVLYGPDDPTISPSYTYYRPGVNLSLSCHAASNPPAQYSWLIDGNIQQHTQELFISNITEKNSGLYTCQANNSASGHSRTTVKTITVSAELPKPSISSNNSKPVEDKDAVAFTCEPEAQNTTYLWWVNGQSLPVSPRLQLSNGNRTLTLFNVTRNDARAYVCGIQNSVSANRSDPVTLDVLYGPDTPIISPPDSSYLSGANLNLSCHSASNPSPQYSWRINGIPQQHTQVLFIAKITPNNNGTYACFVSNLATGRNNSIVKSITVSASGTSPGLSA

Experiments:
liver collagen = conditions: mouse, in vivo
Protocol: In vivo imaging. […] FVB/NJ mice (Jackson Labs) were fed with 0.1% w/w DDC (Sigma) rodent chow for three weeks (Research Diets). Fibrotic and age control animals were i.v. infused with VivoTag-680 labeled reagents and visualized by IVIS imaging (Xenogen).
For in situ zymography, fibrotic sections were covered with 90 μl solution of 0.5% w/v low melt agarose (Sigma) in MMP activation buffer (50 mM Tris, 150 NaCl, 5 mM CaCl2, 0.025% Brij 35, pH 7.5) with 10 μl of DQ-gelation (1 mg/ml, Invitrogen) and Hoechst dye at 37° C. Slides were solidified at 4° C. and then incubated at room temperature overnight to promote gelation proteolysis by tissue proteases. To quantify hepatic collagen, tissue from the right and left lobes (250-300 mg) were hydrolyzed in 5 ml of 6 N HCl at 110° C. for 16 hours followed by hydroxyproline quantification as previously described.^43 To quantify CEA, blood was collected from tumor animals into Capiject microtubes (Terumo) to isolate serum before ELISA analysis (Calbiotech). For immunofluorescence analysis, equimolar NW cocktails (5 μM/peptide) were administered in Fibrotic FVB/NJ or tumor bearing Nude mice. After perfusion, livers or tumors were fixed in 4% PFA, froze for sectioning, and stained for F4/80 (AbD Serotec), MMP-9 (R&D Biosystems), CD31 (Santa Cruz Biotechnologies) and/or FITC (Genetex) before analyzed by fluorescence microscopy (Nikon Eclipse Ti). […]

[1] = design: species or system FVB/NJ mice; conditions: mouse, in vivo, iv
Source text: Using this assay, increases in sample fluorescence were observed upon proteolytic cleavage of the tethered fluorescent peptides resulting from abrogation of homoquenching between adjacent fluorophores. Initial reaction velocities were extracted for each protease-substrate combination and compiled for comparative analysis (FIG. 10a,b). FIG. 10 illustrates selecting protease-sensitive substrates for NW-chaperoned urinary trafficking. Kinetics of peptide-NW cleavage monitored by fluorimetry are shown in (a). Specific protease-substrate combinations led to rapid activation. […] IVIS in vivo imaging of DDC treated and control animals following intravenous injection of VivoTag-680 labeled Glu-fib peptides, (d) peptide-free NWs, or (e) peptide-conjugated NWs.

[2] = test system: hepatic fibrosis and resolution in DDC-treated mice; assay: iCORE LC MS/MS analysis of urinary reporters after i.v. NW cocktail, DDC liver fibrosis model; type: in vivo, FVB/NJ mice; conditions: for individual iCORE peak intensity (DDC over control) relative to pretreatment: DDC-treated mice, NWs administered at 0, 3, 7 and 11 weeks, urine, n=10
Protocol: (§1) Mice were intravenously infused with 200 μl of PBS containing equimolar NW cocktails (5 μM per peptide) with EDTA-free protease inhibitor tablets (Roche) to isolate MMP activity. Mice were placed over 96-well plates surrounded by cylindrical sleeves for urine collection. To prevent further reporter degradation, voided samples were spiked with EDTA+ complete protease inhibitors (Roche) immediately after collection. To quantify urinary fluorescence, 2 μL of each sample was incubated with magnetic beads (Dynal) coated with α-FITC antibodies (Genetex) in 50 μl binding buffer ([…], 0.01% CHAPS) for 1 hr at 37° C., washed twice with 100 mM NH4OAc, and eluted twice with 15 μl of 5% acetic acid. Samples were neutralized with 2 M Tris and quantified by microplate fluorimetry. For iCORE analysis, samples were irradiated with UV for 30 min. before TCA precipitation (20% final volume) to remove proteins. Soluble fractions were applied to C18 reverse phase columns (Nest Group) and eluted via step gradients of 20% ACN increments in 0.1% formic acid. 60% ACN fractions containing Glu-fib peptides were collected and dried by vacuum centrifuge.
Peptide samples were reconstituted in 5% ACN, 0.1% formic acid and analyzed at MIT or the Taplin MS facility (Harvard Medical School). At MIT, peptides were captured and eluted from a C18 nanoflow HPLC column (75 μm internal diameter Magic C18 AQ, Michrom BioResources, Inc.) at a flow rate of 300 nL/min using water-acetonitrile solvent system with 0.1% formic acid. ESI mass spectrometry was carried out on a QSTAR Elite QTOF mass spectrometer (AB Sciex). At Harvard, samples are reconstituted in 2.5% ACN, 0.1% formic acid. Samples are injected using a Famos autosampler (LC Packings) into an Agilent 1100 HPLC prior to mass analysis on a LTQ-Orbitrap (Thermo Electron). To account for discrepancies in urine volumes and concentration, peak intensities of individual reporters were scaled relative to its respective total iCORE ion current before normalization against control samples to account for technical and age-related variations.
Pearson's correlation coefficients between different protease profiles were calculated with MatLAB. ANOVA analyses were calculated with GraphPad 5.0 (Prism). For ROC analysis, risk score functions were first estimated by logistic regression on individual biomarkers followed by ROC curve analyses of single or biomarker combinations (SigmaPlot).
Thus, to monitor the transitions between fibrosing and resolving disease, NWs were administered at 0, 3, 7, and 11 weeks into DDC-treated and age-matched control animals followed by iCORE MS/MS analysis.
The diagnostic performance of these biomarkers was determined by performing receiver operating characteristic (ROC) analyses for individual as well as biomarker combinations. ROC curves characterize the sensitivity and specificity of a biomarker as a function of the discrimination threshold by returning the area under the curve (AUC) as a performance metric with a baseline AUC of 0.5 representing a random biomarker classifier (dashed line, FIG. 11g,h).

LS174T xenograft tumors [3] = assay: iCORE MS/MS analysis of urinary reporters after i.v. NW library, colorectal tumor xenograft model; type: in vivo, athymic nude mice; conditions: LS 174T tumor vs control, day 10; n=16 (8 ctrl, 8 tumor)
Protocol: as §1, with “60% ACN fractions containing Glu-fib peptides were collected and dried by vacuum centrifuge.” left out
Peptide samples were reconstituted in 5% ACN, 0.1% formic acid and analyzed at MIT or the Taplin MS facility (Harvard Medical School). […]
Pearson's correlation coefficients between different protease profiles were calculated with MatLAB. ANOVA analyses were calculated with GraphPad 5.0 (Prism). […]

LS174T xenograft tumors [4] = assay: Serum CEA by ELISA in tumor animals; type: in vivo, athymic nude mice
Protocol: To quantify hepatic collagen, tissue from the right and left lobes (250-300 mg) were hydrolyzed in 5 ml of 6 N HCl at 110° C. for 16 hours followed by hydroxyproline quantification as previously described.^43 To quantify CEA, blood was collected from tumor animals into Capiject microtubes (Terumo) to isolate serum before ELISA analysis (Calbiotech).
Here, it was investigated whether panels of synthetic urinary biomarkers could be readily adapted to allow earlier and more accurate detection of cancer compared with single clinical blood biomarkers, e.g., because nanoparticles can be passively targeted to tumors to sample proteases through fenestrated angiogenic tumor vessels.^16. In order to explore this concept, athymic nude mice were used bearing LS174T xenograft tumors, a human colorectal cancer (CRC) cell line^38 that secretes the blood biomarker carcinoembryonic antigen (CEA) as a model system (FIG. 22). […] Following implantation, tumor engraftment was monitored by sampling serum every 3 days and analyzing for CEA by ELISA (FIG. 23b,c). […] Tumors permitted to grow further were readily detected by CEA analysis (day 13 and 16), representing a limit of detection of ˜330 mm3 (d ˜8.6 mm) (**P<0.01, Two way ANOVA, n=5). […] To determine the full diagnostic potential of multiplexed analysis, individual biomarkers were quantified by iCORE MS/MS.

| Molecule | individual iCORE peak intensity (DDC over control) relative to pretreatment [2] | further results |
| --- | --- | --- |
| 3,5-diethoxycarbonyl-1,4-dihydrocollidine [DDC] |  | drop in liver collagen (liver collagen): ~30% |
| EGVNDNEEGFFSAR [Glu-fib, prototypic urinary marker peptide] |  | liver homing [1]: undetectable; urinary filtration / urinary fluorescence [1]: efficiently filtered into urine |
| eGVndnee^+3G^+6FfsAr-X-K(FAM)GGf(Pip)KSGGGC-NW [Biomarker G10] | did not deviate from initial pretreatment activities |  |
| eG^+5VndneeGFfs^+4Ar-X-K(FAM)GGPVPLSLVMC-NW [Biomarker G5] | significantly decreasing at week 3 | ROC area under the curve (AUC), fibrosing biomarkers ([2]; fibrosing window of 0-3 weeks, baseline AUC 0.5): 0.96 |
| eG^+6Vndnee^+2GFfs^+1Ar-X-K(FAM)GGPWGIWGQGC-NW [Biomarker G4] | strongly increased relative to pretreatment baselines |  |
| e^+1GVndnee^+2G^+6FfsAr-X-K(FAM)GGfPRSGGGC-NW [Biomarker G9] | did not deviate from initial pretreatment activities |  |
| e^+1G^+6Vndnee^+2GFfsAr-X-K(FAM)GGPVGLIGC-NW [Biomarker G3] | strongly increased relative to pretreatment baselines |  |
| e^+2GVndneeG^+6Ffs^+1Ar-X-K(FAM)GGf(Pip)RSGGGC-NW [Biomarker G8] | did not deviate from initial pretreatment activities |  |
| e^+2G^+6Vndnee^+1GFfsAr-X-K(FAM)GGLVPRGSGC-NW [Biomarker G2] | did not deviate from initial pretreatment activities |  |
| e^+3GVndneeG^+6FfsAr-X-K(FAM)GGPLGVRGKC-NW [Biomarker G7] | elevating sharply at week 3 followed by a rapid reversal at week 7 |  |
| e^+3G^+1Vndnee^+1GFfs^+4Ar-X-K(FAM)GGPLGLRSWC-NW [Biomarker G6] | significantly decreasing at week 3 |  |
| e^+3G^+6VndneeGFfsAr-X-K(FAM)GGPQGIWGQC-NW [Biomarker G1] | did not deviate from initial pretreatment activities | ROC area under the curve (AUC), resolving biomarkers ([2]; resolving time frame of 7-11 weeks, baseline AUC 0.5): 0.73; ROC area under the curve (AUC), tumor biomarkers (LS174T xenograft tumors [3]): 0.78 |
| B1 |  | ROC area under the curve (AUC), serum CEA (LS174T xenograft tumors [4]; day 10): 0.61; limit of detection (tumor burden) by CEA analysis (LS174T xenograft tumors [4]; day 13 and 16): ~330 mm3 |
